Test results from patent US8563741B2, “CDK inhibitors containing a zinc binding moiety” (Curis, Inc., priority 2007, dated 2013).
pIC50: −log10 of the molar value.

Assays:
[1] = target: T1, CDK2/cyclinE (Homo sapiens, UniProt P24941); assay: CDK activity assay with p33 ATP, CDK2/cyclinE; type: biochemical; details: 1 μM ATP
T1 construct: C-terminal 6His-tagged, recombinant full-length CDK2 (MW=34 kDa); 6His (C); made in house; host or cells: Sf21 cells (baculovirus)
Experimental: CDK2/cyclinE (Accession Number for CDK2; EMBL M68520, for cyclinE1; GenBank NM_001238):
C-terminal 6His-tagged, recombinant full-length CDK2 (MW=34 kDa) in complex with N-terminal GST-tagged, recombinant full-length cyclinE1 (MW=74 kDa) were expressed with baculovirus system in Sf21 cells. Recombinant proteins were purified using Ni2+/NTA agarose and the purity of recombinant protein complex was measured to be around 76% by SDS-PAGE and Coomassie blue staining. Specific Activity of recombinant CDK2/cyclinE was 1336 U/mg, where one unit of CDK2/cylinE1 activity is defined as 1 nmol phosphate incorporated into 0.1 mg/ml histone H1 per minute at 30° C. with a final ATP concentration of 100 μM. Enzyme was stored with concentration of 0.1 mg/ml in 50 mM Tris/HCl pH 7.5, 150 mM NaCl, 0.03% Brij-35, 0.1 mM EGTA, 0.2 mM PMSF, 1 mM benzamidine, 0.1% 2-mercaptoethanol, 270 mM sucrose.

[2] = target: T2, CDK9/cyclinT1 (Homo sapiens, UniProt P50750); assay: CDK activity assay with p33 ATP, CDK9/cyclinT1; type: biochemical; details: 1 μM ATP
T2 construct: C-terminal 6His-tagged, full-length recombinant, human cdk9 (MW=44 kDa); 6His (C); made in house; host or cells: Sf21 insect cells (baculovirus)
Experimental: CDK9/cyclinT1 (Accession Number for CDK9; GenBank AF517840, for Cyclin T1; GenBank NM_001240)
C-terminal 6His-tagged, full-length recombinant, human cdk9 (MW=44 kDa) were co-expressed with untagged, full-length human cyclin T1 (MW=80.79 kDa) with baculovirus system in Sf21 insect cells. Recombinant protein complex was purified with Ni^2+/NTA agarose. Purity of recombinant protein was measured to be 50% by SDS-PAGE and Coomassie blue staining Specific Activity of purified enzyme was measured to be186 U/mg, where one unit of cdk9/cyclin T1 activity is defined as 1 nmol phosphate incorporated into 100 μM PDKtide ([…]) (SEQ ID NO. 3), per minute at 30° C. with a final ATP concentration of 100 μM. Enzyme was stored at a concentration of 0.1 mg/ml in 50 mM Tris-HCl, pH 7.5, 300 mM NaCl, 0.1 mM EGTA, 0.03% Brij-35, 270 mM sucrose, 1 mM benzamidine, 0.1% 2-mercaptoethanol, 0.2 mM PMSF.
PDKtide (Substrate for CDK9):
Synthetic peptide substrate with sequence of [[…]] (SEQ ID NO. 3), MW=4771.4.

[3] = target: T3, CDK1/cyclinB (Homo sapiens, UniProt P06493); assay: CDK activity assay with p33 ATP, CDK1/cyclinB; type: biochemical; details: 1 μM ATP
T3 construct: C-terminal 6His-tagged human full length cdk1 (MW=35 kDa); 6His (C); made in house; host or cells: Sf21 insect cells (baculovirus)
Source text: CDK1/cyclinB (Accession Number for CDK1; GenBankNM_001786, for cyclinB; EMBL M25753):
C-terminal 6His-tagged human full length cdk1 (MW=35 kDa), and N-terminal GST-tagged human full length cyclin B (MW=75 kDa) were expressed individually with baculovirus system in Sf21 insect cells. Recombinant proteins were purified using Ni2+/NTA-agarose and GST-agarose, respectively. The cdk1 was then activated using CAK and repurified by Q Sepharose and Ni2+/NTA-agarose. They were then mixed in vitro to form protein complex. The purity of these protein complex was estimated to be 80.5% by SDSPAGE and Coomassie blue staining. Specific Activity of recombinant enzyme was measyre to be 1329 U/mg, where one unit of cdk1/cyclinB activity is defined as 1 nmol phosphate incorporated into 0.1 mg/ml histone H1 per minute at 30° C. with a final ATP concentration of […]. Enzyme was stored at concentration of 0.1 mg/ml in 50 mM Tris/HCl pH7.5, 150 mM NaCl, 0.1 mM EGTA, 0.03% Brij-35, 270 mM sucrose, 1 mM benzamidine, 0.2 mM PMSF, 0.1% 2-mercaptoethanol.

[4] = target: T4, CDK3/cyclinE (Homo sapiens, UniProt Q00526); assay: CDK activity assay with p33 ATP, CDK3/cyclinE; type: biochemical; details: 1 μM ATP
T4 construct: C-terminal 6His-tagged recombinant human full-length cdk3 (MW=36 kDa); 6His (C); made in house; host or cells: Sf21 insect cells (baculovirus)
Experimental: CDK3/cyclinE (Accession Number for CDK3; GenBank X66357, for Cyclin E; GenBank NM_001238):
C-terminal 6His-tagged recombinant human full-length cdk3 (MW=36 kDa) were coexpressed with N-terminal GST-tagged recombinant human full-length cyclin E (MW=74 kDa) with baculovirus system in Sf21 insect cells. Recombinant protein complex was purified using Ni2+/NTA agarose and with purity to be 66% by SDS PAGE and Coomassie blue staining. Specific Activity of recombinant enzyme was measured to be 861 U/mg, where one unit of cdk3/cyclinE activity is defined as 1 nmol phosphate incorporated into 0.1 mg/ml histone H1 per minute at 30° C. with a final ATP concentration of […]. Enzyme was stored at a concentration of 0.1 mg/ml in 50 mM Tris/HCl pH7.5, 150 mM NaCl 0.1 mM EGTA, 0.03% Brij 35, 270 mM sucrose, 1 mM benzamidine, 0.2 mM PMSF, 0.1% 2-mercaptoethanol.

[5] = target: CDK7/cyclinH1/MNAT1 (Homo sapiens, UniProt P50613); assay: CDK activity assay with p33 ATP, CDK7/cyclinH1/MNAT1
Experimental: Recombinant Human Full-Length protein, Histidine-tagged CDK7 (MW=43.2 kDa), Histidine-tagged cyclin H1 (MW=42.6 kDa), Histidine-tagged MNAT1 (MW=40.5 kDa), were expressed in insect cells.
For CDK activity assay, p33 ATP tracers were incubated with purified recombinant specific combination of purified CDK kinases, cyclins and substrates to monitor the enzyme activity. In these assays, individual reactions were carried out in specific conditions describe below with reaction buffer: 20 mM HEPES (pH 7.5), 10 mM MgCl2, 1 mM EGTA, 0.02% Brij 35, 0.02 mg/ml BSA, 0.1 mM Na3VO4, 2 mM DTT. […] Precipitated proteins were trapped onto glass fiber B filterplates and excess unlabeled p33 ATP was washed off. The plates were allowed to air-dry prior to the addition of 30 uL/well of Packard Microscint 20. The amount of incorporated isotope was measured using a Perkin Elmer TopCount plate reader. […] IC50 was calculated using Prism software with sigmoidal dose-response curve fitting.
100 nM CDK7/cyclinH1/MNAT1 and 20 μM Histon H1 were mixed in the reaction buffer with 1 μM ATP and 1% DMSO.

[6] = target: T5, CDK6/cyclinD3 (Homo sapiens, UniProt Q00534); assay: CDK activity assay with p33 ATP, CDK6/cyclinD3; type: biochemical; details: 1 μM ATP; read-out: CDK6/cyclinD IC50
T5 construct: N-terminal, 6His-tagged full-length human cdk6 (MW=38 kDa); 6His (N); made in house; host or cells: Sf21 cells
Experimental: CDK6/cyclinD3 (Accession Number for CDK6; GenBank X66365, for Cyclin D3; EMBL M90814):
N-terminal, 6His-tagged full-length human cdk6 (MW=38 kDa) complexed with N-terminal GST-tagged full-length human cyclin D3 (MW=59 kDa) were expressed in Sf21 cells. Recombinant protein complex was purified using glutathione-agarose and activated with CAK, and repurified with Ni2+/NTA-agarose column. Purity was measured to be at least 68%. Specific Activity was measured to be 39 U/mg, where one unit of cdk6/cyclinD3 activity is defined as 1 nmol phosphate incorporated into 0.1 mg/ml histone H1 per minute at 30° C. with a final ATP concentration of 100 μM. Enzyme was stored at concentration of 0.1 mg/ml in 50 mM Tris-HCl, pH 7.5, 270 mM sucrose, 150 mM NaCl, 1 mM benzamidine, 0.2 mM PMSF, 0.1% 2-mercaptoethanol, 0.1 mM EGTA, 0.03% Brij 35.

T3 sequence (P06493 whole entry): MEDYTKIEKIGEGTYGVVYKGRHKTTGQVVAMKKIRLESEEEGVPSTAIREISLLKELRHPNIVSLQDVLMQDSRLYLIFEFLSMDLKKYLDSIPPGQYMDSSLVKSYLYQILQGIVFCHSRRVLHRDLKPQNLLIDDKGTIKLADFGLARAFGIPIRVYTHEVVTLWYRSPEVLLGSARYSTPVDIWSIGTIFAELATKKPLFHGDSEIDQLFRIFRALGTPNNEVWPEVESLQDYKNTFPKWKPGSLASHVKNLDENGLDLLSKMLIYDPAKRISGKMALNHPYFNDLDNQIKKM
T3 sequence (P14635 whole entry partner): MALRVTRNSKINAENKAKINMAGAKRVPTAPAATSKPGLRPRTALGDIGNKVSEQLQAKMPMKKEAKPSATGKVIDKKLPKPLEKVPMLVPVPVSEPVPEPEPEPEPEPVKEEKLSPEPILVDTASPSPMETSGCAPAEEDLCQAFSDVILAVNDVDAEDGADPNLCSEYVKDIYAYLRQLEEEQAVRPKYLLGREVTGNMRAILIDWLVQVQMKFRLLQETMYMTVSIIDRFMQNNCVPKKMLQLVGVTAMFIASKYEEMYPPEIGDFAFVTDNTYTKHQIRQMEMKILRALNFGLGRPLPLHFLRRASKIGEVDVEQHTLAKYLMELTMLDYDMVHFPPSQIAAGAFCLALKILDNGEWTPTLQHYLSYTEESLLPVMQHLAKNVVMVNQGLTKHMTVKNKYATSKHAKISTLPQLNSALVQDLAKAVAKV
T2 sequence (P50750 whole entry): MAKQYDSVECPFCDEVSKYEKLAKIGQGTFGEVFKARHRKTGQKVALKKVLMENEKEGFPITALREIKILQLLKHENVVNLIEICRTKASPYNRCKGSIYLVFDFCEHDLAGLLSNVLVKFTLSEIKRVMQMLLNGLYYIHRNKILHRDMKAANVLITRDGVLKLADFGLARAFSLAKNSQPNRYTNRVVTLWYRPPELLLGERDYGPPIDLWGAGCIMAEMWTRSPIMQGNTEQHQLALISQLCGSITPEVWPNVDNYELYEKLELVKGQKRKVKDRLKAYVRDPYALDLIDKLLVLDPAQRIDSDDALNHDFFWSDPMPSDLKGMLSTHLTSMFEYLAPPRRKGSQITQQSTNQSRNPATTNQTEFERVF
T2 sequence (O60563 whole entry partner): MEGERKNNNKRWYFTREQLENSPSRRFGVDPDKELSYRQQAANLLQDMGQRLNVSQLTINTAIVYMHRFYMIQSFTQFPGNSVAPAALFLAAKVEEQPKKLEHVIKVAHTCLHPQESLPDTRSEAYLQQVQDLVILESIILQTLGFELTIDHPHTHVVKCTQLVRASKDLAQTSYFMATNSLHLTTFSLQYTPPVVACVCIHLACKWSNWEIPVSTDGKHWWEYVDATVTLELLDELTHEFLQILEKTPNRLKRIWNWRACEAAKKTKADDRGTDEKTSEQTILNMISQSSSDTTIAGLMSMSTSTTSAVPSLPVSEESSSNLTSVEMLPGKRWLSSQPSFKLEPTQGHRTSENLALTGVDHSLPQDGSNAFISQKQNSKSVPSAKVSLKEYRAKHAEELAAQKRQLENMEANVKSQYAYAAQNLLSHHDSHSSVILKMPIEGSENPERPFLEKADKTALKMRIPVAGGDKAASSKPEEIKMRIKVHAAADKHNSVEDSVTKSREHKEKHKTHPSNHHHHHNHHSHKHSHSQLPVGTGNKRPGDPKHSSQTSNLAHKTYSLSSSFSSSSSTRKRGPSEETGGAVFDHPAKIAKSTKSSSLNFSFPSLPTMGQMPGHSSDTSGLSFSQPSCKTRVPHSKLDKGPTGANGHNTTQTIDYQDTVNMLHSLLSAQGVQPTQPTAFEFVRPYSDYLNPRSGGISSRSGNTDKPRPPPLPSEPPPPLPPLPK
Sequence of CDK7/cyclinH1/MNAT1 (P50613 whole entry): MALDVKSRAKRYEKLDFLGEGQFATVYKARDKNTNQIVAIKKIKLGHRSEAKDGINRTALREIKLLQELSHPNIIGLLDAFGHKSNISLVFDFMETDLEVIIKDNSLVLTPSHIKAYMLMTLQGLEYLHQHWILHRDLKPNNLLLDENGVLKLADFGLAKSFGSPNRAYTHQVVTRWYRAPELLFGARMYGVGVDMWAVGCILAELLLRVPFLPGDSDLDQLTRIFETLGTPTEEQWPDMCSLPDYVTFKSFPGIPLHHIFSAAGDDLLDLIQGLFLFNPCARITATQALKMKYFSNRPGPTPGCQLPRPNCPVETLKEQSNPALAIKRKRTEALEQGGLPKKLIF
Sequence of CDK7/cyclinH1/MNAT1 (P51946 whole entry partner): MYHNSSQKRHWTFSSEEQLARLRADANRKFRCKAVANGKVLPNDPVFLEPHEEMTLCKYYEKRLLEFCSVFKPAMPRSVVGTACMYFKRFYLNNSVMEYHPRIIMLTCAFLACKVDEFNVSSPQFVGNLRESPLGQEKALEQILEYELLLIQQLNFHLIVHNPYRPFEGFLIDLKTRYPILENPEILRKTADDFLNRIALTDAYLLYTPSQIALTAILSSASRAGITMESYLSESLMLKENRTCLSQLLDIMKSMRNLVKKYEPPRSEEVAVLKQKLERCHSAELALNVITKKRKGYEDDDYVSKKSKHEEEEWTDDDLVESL
Sequence of CDK7/cyclinH1/MNAT1 (P51948 whole entry partner): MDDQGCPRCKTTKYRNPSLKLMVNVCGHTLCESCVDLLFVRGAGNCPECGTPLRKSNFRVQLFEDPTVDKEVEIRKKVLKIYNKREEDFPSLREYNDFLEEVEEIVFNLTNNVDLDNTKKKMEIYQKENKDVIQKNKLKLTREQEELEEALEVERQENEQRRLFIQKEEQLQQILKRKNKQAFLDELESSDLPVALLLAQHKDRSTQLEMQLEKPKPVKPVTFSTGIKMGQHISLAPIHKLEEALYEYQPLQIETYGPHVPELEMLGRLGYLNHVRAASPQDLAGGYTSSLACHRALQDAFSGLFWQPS
T5 sequence (Q00534 whole entry): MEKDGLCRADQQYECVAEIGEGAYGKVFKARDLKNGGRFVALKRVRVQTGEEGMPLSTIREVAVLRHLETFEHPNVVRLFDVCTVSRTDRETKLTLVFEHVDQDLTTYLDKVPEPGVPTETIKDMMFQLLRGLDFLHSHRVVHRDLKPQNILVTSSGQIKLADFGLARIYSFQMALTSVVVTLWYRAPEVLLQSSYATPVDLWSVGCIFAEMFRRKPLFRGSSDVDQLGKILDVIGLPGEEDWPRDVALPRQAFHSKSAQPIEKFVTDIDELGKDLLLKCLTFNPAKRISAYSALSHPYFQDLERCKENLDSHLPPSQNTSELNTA
T5 sequence (P30281 whole entry partner): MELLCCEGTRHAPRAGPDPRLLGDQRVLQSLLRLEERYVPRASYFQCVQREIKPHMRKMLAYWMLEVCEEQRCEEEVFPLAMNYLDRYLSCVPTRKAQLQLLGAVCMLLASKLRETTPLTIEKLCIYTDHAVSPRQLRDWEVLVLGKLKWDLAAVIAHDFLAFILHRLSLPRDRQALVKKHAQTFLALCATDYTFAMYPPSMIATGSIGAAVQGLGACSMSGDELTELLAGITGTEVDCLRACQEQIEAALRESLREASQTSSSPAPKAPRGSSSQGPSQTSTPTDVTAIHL

Row | Compound | pIC50 [1] | pIC50 [2] | pIC50 [3] | pIC50 [4] | pIC50 [5] | pIC50 [6]
1 | CC(C)(C)c1cnc(CSc2cnc(NC(=O)CCCCCCC(=O)NO)s2)o1 [Compound 8, N^1-(5-((5-tert-butyloxazol-2-yl)methylthio)thiazol-2-yl)-N^8-hydroxyoctanediamide] | > 7.00 | > 7.00 | > 7.00 | > 7.00 | 6.00 to 7.00 | 6.00 to 7.00
2 | CC(C)(C)c1cnc(CSc2cnc(NC(=O)Cc3ccc(OCCCC(=O)NO)cc3)s2)o1 [Compound 9, 4-(4-(2-(5-((5-tert-butyloxazol-2-yl)methylthio)thiazol-2-ylamino)-2-oxoethyl)phenoxy)-N-hydroxybutanamide] | > 7.00 | > 7.00 | > 7.00 | > 7.00 | 6.00 to 7.00 | 6.00 to 7.00
3 | CC(C)(C)c1cnc(CSc2cnc(NC(=O)C3CCN(c4ncc(C(=O)NO)cn4)CC3)s2)o1 [Compound 20, 2-(4-(5-((5-tert-butyloxazol-2-yl)methylthio)thiazol-2-ylcarbamoyl)piperidin-1-yl)-N-hydroxypyrimidine-5-carboxamide] | > 7.00 | > 7.00 | > 7.00 | > 7.00 | 5.00 to 6.00 | 5.00 to 6.00
